This is an account of results in patent US20250368645A1, “BETA CARBOLINE ANALOGUES AS SELECTIVE AND BIASED KAPPA OPIOID RECEPTORS AGONISTS FOR TREATING VARIOUS ASSOCIATED PATHOPHYSIOLOGICAL CONDITIONS” (COUNCIL OF SCIENTIFIC AND INDUSTRIAL RESEARCH, priority 2022, published 2025).

pIC50: −log10 of the molar value.

What is called IC50 is the midpoint of a concentration-inhibition curve. A word on the pIC50: it is the IC50 on a negative log10 scale, so that one unit is a factor of ten.

Common to all, as to format: cell-based
In one assay the target is human KOR (Homo sapiens, UniProt P41145). In words: GloSensor assay, Gi-mediated cAMP inhibition in HEK-293T cells transfected with human KOR. Conditions: given as Log IC50 (negative values); agonist activity, inhibition of FSK-stimulated cAMP; read-out: GloSensor Assay (Log IC50) KOR (converted).
The target in another assay is MOR (Homo sapiens, UniProt P35372). In words: GloSensor assay at MOR. Conditions: given as Log IC50 (negative values).
For a further assay, the target named is DOR (Homo sapiens, UniProt P41143). Briefly: GloSensor assay at DOR. To be noted: given as Log IC50 (negative values).
Sequence of DOR (P41143 whole entry): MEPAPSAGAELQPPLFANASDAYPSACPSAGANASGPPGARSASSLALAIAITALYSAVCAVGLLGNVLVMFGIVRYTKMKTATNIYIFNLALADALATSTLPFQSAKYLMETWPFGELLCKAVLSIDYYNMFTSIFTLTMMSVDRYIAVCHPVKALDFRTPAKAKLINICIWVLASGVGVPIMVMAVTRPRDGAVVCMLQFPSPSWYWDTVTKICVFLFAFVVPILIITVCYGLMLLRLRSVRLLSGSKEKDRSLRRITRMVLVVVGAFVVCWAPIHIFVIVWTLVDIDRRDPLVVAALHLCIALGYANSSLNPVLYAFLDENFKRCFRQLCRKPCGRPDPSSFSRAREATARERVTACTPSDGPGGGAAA

Sequence of MOR (P35372 whole entry): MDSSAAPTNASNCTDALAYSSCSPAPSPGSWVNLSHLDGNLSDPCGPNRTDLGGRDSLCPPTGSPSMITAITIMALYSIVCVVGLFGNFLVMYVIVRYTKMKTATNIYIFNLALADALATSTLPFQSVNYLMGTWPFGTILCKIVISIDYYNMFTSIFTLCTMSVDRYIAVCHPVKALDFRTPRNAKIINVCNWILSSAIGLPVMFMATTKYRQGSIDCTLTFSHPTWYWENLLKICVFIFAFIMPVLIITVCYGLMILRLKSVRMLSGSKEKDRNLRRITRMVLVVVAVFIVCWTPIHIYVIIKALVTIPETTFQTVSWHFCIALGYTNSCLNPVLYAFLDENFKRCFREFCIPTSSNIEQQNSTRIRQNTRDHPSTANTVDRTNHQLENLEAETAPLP
Sequence of human KOR (P41145 whole entry): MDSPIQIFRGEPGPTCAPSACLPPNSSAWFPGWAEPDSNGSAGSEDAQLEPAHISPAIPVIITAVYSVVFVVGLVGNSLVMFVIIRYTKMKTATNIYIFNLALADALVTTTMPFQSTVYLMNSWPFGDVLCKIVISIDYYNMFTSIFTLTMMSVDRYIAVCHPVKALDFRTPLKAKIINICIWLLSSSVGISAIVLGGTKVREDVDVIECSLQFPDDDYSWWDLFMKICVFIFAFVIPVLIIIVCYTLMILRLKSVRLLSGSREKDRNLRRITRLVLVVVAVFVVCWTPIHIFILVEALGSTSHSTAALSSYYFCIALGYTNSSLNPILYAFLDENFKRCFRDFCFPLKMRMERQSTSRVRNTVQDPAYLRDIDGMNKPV

For `Clc1ccc(-c2c3c4[nH]c5ccccc5c4cc[n+]3cn2-c2cccc(Cl)c2)cc1` [8adf, 2-(3-Chlorophenyl)-1-(4-chlorophenyl)-2,11-dihydroimidazo[1′,5′:1,2]pyrido[3,4-b]indol-4-ium chloride], on human KOR, the concentration for half-maximal inhibition (IC50) was greater than 10 µM. Further, the pIC50 at MOR and against DOR was less than 5.00 in each case.
Regarding `c1ccc(-c2c3c4[nH]c5ccccc5c4cc[n+]3cn2-c2ccccc2)cc1` [8aaa, 1,2-Diphenyl-2,11-dihydroimidazo[1′,5′:1,2]pyrido[3,4-b]indol-4-ium chloride], at human KOR, the 50% inhibitory concentration (IC50) is greater than 10 µM. For the same compound, the negative logarithm of the IC50 (pIC50) on MOR and at DOR was less than 5.00 throughout.
As for `COc1cc(-c2c3c4[nH]c5ccccc5c4cc[n+]3cn2-c2ccc(F)cc2)cc(OC)c1OC` [8apd, 2-(4-Fluorophenyl)-1-(3,4,5-trimethoxyphenyl)-2,11-dihydroimidazo[1′,5′:1,2]pyrido[3,4-b]indol-4-ium chloride], the IC50 at human KOR was greater than 10 µM. Also, the negative-log IC50 (pIC50) at MOR and on DOR was less than 5.00 throughout.
In the case of `Fc1ccc(-c2c3c4[nH]c5ccccc5c4cc[n+]3cn2-c2ccc(F)cc2)cc1` [8agd, 1,2-Bis(4-fluorophenyl)-2,11-dihydroimidazo[1′,5′:1,2]pyrido[3,4-b]indol-4-ium chloride], the half-inhibitory concentration (IC50) at human KOR was greater than 10 µM. Also, the negative logarithm of the IC50 (pIC50) against MOR and against DOR was less than 5.00 each time.
`Clc1ccc(-c2c3c4[nH]c5ccccc5c4c4ccccc4[n+]3cn2-c2ccc(Cl)cc2)cc1` [12dd, 1,2-Bis(4-chlorophenyl)-2,13-dihydroimidazo[1,5-a]indolo[2,3-c]quinolin-4-ium chloride]: at human KOR, the half-inhibitory concentration (IC50) was greater than 10 µM. The pIC50 against MOR and against DOR was less than 5.00 throughout.
For `Clc1cccc(-n2c[n+]3ccc4c5ccccc5[nH]c4c3c2-c2ccc(Br)cc2)c1` [8abf, 1-(4-Bromophenyl)-2-(3-chlorophenyl)-2,11-dihydroimidazo[1′,5′:1,2]pyrido[3,4-b]indol-4-ium chloride], the IC50 at human KOR was greater than 10 µM. For the same compound, the negative logarithm of the IC50 (pIC50) at MOR and against DOR was less than 5.00 in each case.
`COc1ccc(-n2c[n+]3ccc4c5ccccc5[nH]c4c3c2-c2ccc(Cl)cc2)cc1` [8adg, 1-(4-Chlorophenyl)-2-(4-methoxyphenyl)-2,11-dihydroimidazo[1′,5′:1,2]pyrido[3,4-b]indol-4-ium chloride]: the half-inhibitory concentration (IC50) on human KOR was 0.794 µM. Further, the pIC50 against MOR and against DOR was less than 5.00 throughout.
Regarding `Fc1cccc(-n2c[n+]3ccc4c5ccccc5[nH]c4c3c2-c2ccc(Br)cc2)c1` [8abi, 1-(4-Bromophenyl)-2-(3-fluorophenyl)-2,11-dihydroimidazo[1′,5′:1,2]pyrido[3,4-b]indol-4-ium chloride], at human KOR, the IC50 is greater than 10 µM. Further, the pIC50 on MOR and on DOR was less than 5.00 in each case.
On to `FC(F)(F)c1ccc(Cn2c[n+]3ccc4c5ccccc5[nH]c4c3c2-c2ccc(Br)cc2)cc1` [9aad, 1-(4-Bromophenyl)-2-(4-(trifluoromethyl)benzyl)-2,11-dihydroimidazo[1′,5′:1,2]pyrido[3,4-b]indol-4-ium chloride], for which the IC50 at human KOR was greater than 10 µM. In addition, the pIC50 at MOR and at DOR was less than 5.00 throughout.
`Clc1ccc(-n2c[n+]3ccc4c5ccccc5[nH]c4c3c2-c2ccccc2)cc1` [8aac, 2-(4-Chlorophenyl)-1-phenyl-2,11-dihydroimidazo[1′,5′:1,2]pyrido[3,4-b]indol-4-ium chloride]: the half-maximal inhibitory concentration (IC50) at human KOR is 0.126 µM. The negative logarithm of the IC50 (pIC50) at MOR and against DOR was less than 5.00 in each case.
Regarding `FC(F)(F)Oc1ccc(Cn2c[n+]3ccc4c5ccccc5[nH]c4c3c2-c2ccc(Cl)cc2)cc1` [9abh, 1-(4-Chlorophenyl)-2-(4-(trifluoromethoxy)benzyl)-2,11-dihydroimidazo[1′,5′:1,2]pyrido[3,4-b]indol-4-ium chloride], the IC50 at human KOR is greater than 10 µM. Also, the negative logarithm of the IC50 (pIC50) against MOR and at DOR was less than 5.00 each time.
With `Cn1c2ccccc2c2cc[n+]3cn(-c4ccc(F)cc4)c(-c4ccc(Br)cc4)c3c21` [8dbd, 1-(4-Bromophenyl)-2-(4-fluorophenyl)-11-methyl-2,11-dihydroimidazo[1′,5′:1,2]pyrido[3,4-b]indol-4-iumchloride], the IC50 on human KOR was greater than 10 µM. The pIC50 against MOR and on DOR was less than 5.00 throughout.
As to `COC(=O)c1cc2c3ccccc3[nH]c2c2c(-c3ccc(C)cc3)n(-c3ccc(F)cc3)c[n+]12` [8bkd, 2-(4-Fluorophenyl)-5-(methoxycarbonyl)-1-(p-tolyl)-2,11-dihydroimidazo[1′,5′:1,2]pyrido[3,4-b]indol-4-iumchloride], the IC50 on human KOR is greater than 10 µM. The pIC50 against MOR and against DOR was less than 5.00 each time.
With `COC(=O)c1cc2c3ccccc3[nH]c2c2c(-c3ccc(Br)cc3)n(-c3ccc(F)cc3)c[n+]12` [8bbd, 1-(4-Bromophenyl)-2-(4-fluorophenyl)-5-(methoxycarbonyl)-2,11-dihydroimidazo[1′,5′:1,2]pyrido[3,4-b]indol-4-iumchloride], the concentration for half-maximal inhibition (IC50) on human KOR is greater than 10 µM. Also, the pIC50 against MOR and on DOR was less than 5.00 in each case.
On to `Fc1ccc(-c2c3c4[nH]c5ccccc5c4cc[n+]3cn2-c2cccc(Cl)c2)cc1` [8agf, 2-(3-Chlorophenyl)-1-(4-fluorophenyl)-2,11-dihydroimidazo[1′,5′:1,2]pyrido[3,4-b]indol-4-ium chloride], for which the IC50 on human KOR was greater than 10 µM. Besides, the negative logarithm of the IC50 (pIC50) at MOR and against DOR was less than 5.00 each time.
`FC(F)(F)Oc1ccc(-n2c[n+]3ccc4c5ccccc5[nH]c4c3c2-c2ccc(Br)cc2)cc1` [8abh]: the IC50 at human KOR was greater than 10 µM. In addition, the pIC50 against MOR and at DOR was less than 5.00 each time.
As to `COC(=O)c1cc2c3ccccc3[nH]c2c2c(C)n(-c3ccc(F)cc3)c[n+]12` [8bpd, 2-(4-Fluorophenyl)-5-(methoxycarbonyl)-1-methyl-2,11-dihydroimidazo[1′,5′:1,2]pyrido[3,4-b]indol-4-ium chloride], at human KOR, the IC50 is 3.16 µM. Further, the pIC50 against MOR and at DOR was less than 5.00 throughout.
For `Fc1cccc(-n2c[n+]3ccc4c5ccccc5[nH]c4c3c2-c2ccccc2Br)c1` [8aci, 1-(2-Bromophenyl)-2-(3-fluorophenyl)-2,11-dihydroimidazo[1′,5′:1,2]pyrido[3,4-b]indol-4-ium], the IC50 on human KOR was 0.0631 µM. Also, the pIC50 on MOR and against DOR was less than 5.00 in each case.
Take `Brc1ccc(-c2c3c4[nH]c5ccccc5c4cc[n+]3cn2Cc2ccccc2)cc1` [9aaa, 2-Benzyl-1-(4-bromophenyl)-2,11-dihydroimidazo[1′,5′:1,2]pyrido[3,4-b]indol-4-ium chloride]: the IC50 at human KOR was greater than 10 µM. In addition, the pIC50 at MOR and against DOR was less than 5.00 in each case.
As for `Clc1ccc(-n2c[n+]3ccc4c5ccccc5[nH]c4c3c2-c2cccc(Cl)c2)cc1` [8afc, 1-(3-Chlorophenyl)-2-(4-chlorophenyl)-2,11-dihydrolmidazo[1′,5′:1,2]pyrido[3,4-b]indol-4-ium chloride], the IC50 on human KOR is 0.316 µM. Besides, the pIC50 at MOR and on DOR was less than 5.00 throughout.
On to `Brc1ccc(-c2c3c4[nH]c5ccccc5c4cc[n+]3cn2-c2ccccc2)cc1` [8aba, 1-(4-Bromophenyl)-2-phenyl-2,11-dihydroimidazo[1′,5′:1,2]pyrido[3,4-b]indol-4-ium chloride], for which the IC50 at human KOR is 0.0708 µM. The pIC50 against MOR and at DOR was less than 5.00 throughout.
Take `COc1ccc(Cn2c[n+]3ccc4c5ccccc5[nH]c4c3c2-c2ccc(Cl)cc2)cc1OC` [9abg, 1-(4-Chlorophenyl)-2-(3,4-dimethoxybenzyl)-2,11-dihydroimidazo[1′,5′:1,2]pyrido[3,4-b]indol-4-ium chloride]: the IC50 on human KOR is 0.955 µM. For the same compound, the pIC50 against MOR and against DOR was less than 5.00 throughout.
On to `Clc1ccc(-c2c3c4[nH]c5ccccc5c4c4ccccc4[n+]3cn2-c2ccc(Br)cc2)cc1` [12db, 2(4-Bromophenyl-1-(4-chlorophenyl)-2,13-dihydroimidazo[1,5-a]indolo[2,3-c]quinolin-4-ium chloride], for which the IC50 at human KOR was 0.251 µM.
Consider `Fc1ccc(-n2c[n+]3ccc4c5ccccc5[nH]c4c3c2-c2cccc(Cl)c2)cc1` [8afd, 1-(3-Chlorophenyl)-2-(4-fluorophenyl)-2,11-dihydroimidazo[1′,5′:1,2]pyrido[3,4-b]indol-4-ium chloride], for which the half-inhibitory concentration (IC50) on human KOR was 1.82 µM. Also, the negative-log IC50 (pIC50) against MOR and at DOR was less than 5.00 each time.
Consider `CC(C)(C)c1ccc(Cn2c[n+]3ccc4c5ccccc5[nH]c4c3c2-c2ccc(Br)cc2)cc1` [9aac, 1-(4-Bromophenyl)-2-(4-(tert-butyl)benzyl)-2,11-dihydroimidazo[1′,5′:1,2]pyrido[3,4-b]indol-4-ium chloride], for which the concentration for half-maximal inhibition (IC50) at human KOR is greater than 10 µM. For the same compound, the negative-log IC50 (pIC50) against MOR and against DOR was less than 5.00 throughout.
For the compound `O=[N+]([O-])c1ccc(-c2c3c4[nH]c5ccccc5c4cc[n+]3cn2-c2ccc(F)cc2)cc1` [8ald, 2-(4-Fluorophenyl)-1-(4-nitrophenyl)-2,11-dihydrolmidazo[1′,5′:1,2]pyrido[3,4-b]indol-4-ium chloride], the IC50 at human KOR is greater than 10 µM. Also, the pIC50 at MOR and on DOR was less than 5.00 in each case.
With `Fc1ccc(-n2c[n+]3ccc4c5ccccc5[nH]c4c3c2-c2ccc(Br)cc2)c(Cl)c1` [8abl, 1-(4-Bromophenyl)-2-(2-chloro-4-fluorophenyl)-2,11-dihydrolmidazo[1′,5′:1,2]pyrido[3,4-b]indol-4-ium chloride], the IC50 at human KOR is greater than 10 µM. Besides, the pIC50 against MOR and against DOR was less than 5.00 throughout.
